Reference: patent publication US20070155730A1, “Benzodiazepine And Benzopiperazine Analog Inhibitors Of Histone Deacetylase” (METHYLGENE, INC., priority 2005, published 2007)
pIC50: −log10 of the molar value.

Target: histone deacetylase (HDAC)
Test: Inhibition of Histone Deacetylase Enzymatic Activity
Format: biochemical
Conditions: substrate Boc-Lys(Ac)-AMC, Fluor-de-Lys developer, 37° C., 20 min; against one or more of HDAC-1 to HDAC-11, SirT1 to SirT7 (isoform not given); read-out: HDAC Inhibitory Activity (IC50)
Summary of the method: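 Enzyme preincubated with compound at room temperature in 25 mM HEPES pH 8.0, 137 mM NaCl, 2.7 mM KCl, 1 mM MgCl2; reaction started at 37 °C with Boc-Lys(Ac)-AMC substrate. Fluorescence read ex 360/em 470 nm after 10 min dark incubation; activity binned into ranges A–D (<0.05 to <10 μM).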

| Compound | pIC50 |
| --- | --- |
| C[C@@H]1NC(=O)c2ccccc2N(CCCCCC(=O)NO)C1=O [Compound 68b22, 6-((S)-2,3,4,5-Tetrahydro-3-methyl-2,5-dioxobenzo[e][1,4]diazepin-1-yl)-N-hydroxyhexanamide] | 5.70 to 6.30 |
| C[C@H]1NC(=O)c2ccccc2N(CCCCCC(=O)NO)C1=O [Compound 68b23, 6-((R)-2,3,4,5-Tetrahydro-3-methyl-2,5-dioxobenzo[e][1,4]diazepin-1-yl)-N-hydroxyhexanamide] | 6.30 to 7.30 |
| O=C(CCc1ccc2c(c1)NC(=O)[C@H](Cc1c[nH]c3ccccc13)N2)NO [Compound 69, 3-((S)-2-((1H-indol-3-yl)methyl)-1,2,3,4-tetrahydro-3-oxoquinoxalin-6-yl)-N-hydroxypropanamide] | 5.70 to 6.30 |
| CC(C)C[C@H]1NC(=O)c2ccccc2N(CCCCCC(=O)Nc2ccccc2N)C1=O [Compound 71, N-(2-Aminophenyl)-6-((R)-2,3,4,5-tetrahydro-3-isobutyl-2,5-dioxobenzo[e][1,4]diazepin-1-yl)hexanamide] | 5.00 to 5.70 |
| CC(C)C[C@H]1NC(=O)c2ccccc2N(CCCCCC(=O)Nc2cscc2N)C1=O [Compound 72, N-(4-Aminothiophen-3-yl)-6-((R)-2,3,4,5-tetrahydro-3-isobutyl-2,5-dioxobenzo[e][1,4]diazepin-1-yl)hexanamide] | 5.00 to 5.70 |
| O=C(CCCCCC1NC(=O)c2ccccc2NC1=O)NO (stereo not drawn) [Compound 74, 6-(2,3,4,5-Tetrahydro-2,5-dioxo-1H-benzo[e][1,4]diazepin-3-yl)-N-hydroxyhexanamide] | 6.30 to 7.30 |
| O=C(CCCCCC1NC(=O)c2ccccc2N(CCc2c[nH]c3ccccc23)C1=O)NO (stereo not drawn) [Compound 79, 6-(1-(2-(1H-Indol-3-yl)ethyl)-2,3,4,5-tetrahydro-2,5-dioxo-1H-benzo[e][1,4]diazepin-3-yl)-N-hydroxyhexanamide] | 6.30 to 7.30 |
| O=C(CCCCCC1NC(=O)c2ccccc2N(Cc2ccccc2)C1=O)NO (stereo not drawn) [Compound 80, 6-(1-Benzyl-2,3,4,5-tetrahydro-2,5-dioxo-1H-benzo[e][1,4]diazepin-3-yl)-N-hydroxyhexanamide] | 6.30 to 7.30 |
| COc1cc(CN2C(=O)C(CCCCCC(=O)NO)NC(=O)c3ccccc32)cc(OC)c1 (stereo not drawn) [Compound 81, 6-(1-(3,5-Dimethoxybenzyl)-2,3,4,5-tetrahydro-2,5-dioxo-1H-benzo[e][1,4]diazepin-3-yl)-N-hydroxyhexanamide] | 5.70 to 6.30 |
| COc1ccc(CN2C(=O)C(CCCCCC(=O)NO)NC(=O)c3ccccc32)cc1 (stereo not drawn) [Compound 82, 6-(1-(4-Methoxybenzyl)-2,3,4,5-tetrahydro-2,5-dioxo-1H-benzo[e][1,4]diazepin-3-yl)-N-hydroxyhexanamide] | 5.70 to 6.30 |
| O=C(CCCCCC1NC(=O)c2ccccc2N(CCc2ccccc2)C1=O)NO (stereo not drawn) [Compound 83, 6-(2,3,4,5-tetrahydro-2,5-dioxo-1-phenethyl-1H-benzo[e][1 ,4]diazepin-3-yl)-N-hydroxyhexanamide] | 5.70 to 6.30 |
| O=C(CCCCCC1NC(=O)c2cc(Oc3ccccc3)ccc2NC1=O)NO (stereo not drawn) [Compound 88a, 6-(2,3,4,5-Tetrahydro-2,5-dioxo-7-phenoxy-1H-benzo[e][1,4]diazepin-3-yl)-N-hydroxyhexanamide] | 6.30 to 7.30 |
| O=C(CCCCCC1NC(=O)c2cc(NC(=O)OCc3ccccc3)ccc2NC1=O)NO (stereo not drawn) [Compound 92a, 6-(7-Benzyloxycarbonylamino-2,3,4,5-tetrahydro-2,5-dioxo-1H-benzo[e][1,4]diazepin-3-yl)-N-hydroxyhexanamide] | 6.30 to 7.30 |
| O=C(CCCCC[C@@H]1NC(=O)c2cc(NC(=O)OCc3ccccc3)ccc2NC1=O)NO [Compound 92b, (S)-Benzyl 3-(6-(hydroxyamino)-6-oxohexyl)-2,5-dioxo-2,3,4,5-tetrahydro-1H-benzo[e][1,4]diazepin-7-ylcarbamate] | 6.30 to 7.30 |
| CC(C)[C@H]1NC(=O)c2ccc(C(=O)NO)cc2NC1=O [Compound 97a, (R)—N-Hydroxy-3-isopropyl-2,5-dioxo-2,3,4,5-tetrahydro-1H-benzo[e][1,4]diazepine-8-carboxamide] | 5.00 to 5.70 |
| CC(C)[C@@H]1NC(=O)c2ccc(C(=O)NO)cc2NC1=O [Compound 97b, (S)-N-Hydroxy-3-isopropyl-2,5-dioxo-2,3,4,5-tetrahydro-1H-benzo[e][1,4]diazepine-8-carboxamide] | 5.00 to 5.70 |
| O=C(NO)c1ccc2c(c1)NC(=O)[C@H](Cc1c[nH]c3ccccc13)NC2=O [Compound 97c, (S)-3-((1H-Indol-3-yl)methyl)-N-hydroxy-2,5-dioxo-2,3,4,5-tetrahydro-1H-benzo[e][1,4]diazepine-8-carboxamide] | 5.70 to 6.30 |
| O=C(NO)c1ccc2c(c1)NC(=O)[C@@H](Cc1c[nH]c3ccccc13)NC2=O [Compound 97d, (R)-3-((1H-Indol-3-yl)methyl)-N-hydroxy-2,5-dioxo-2,3,4,5-tetrahydro-1H-benzo[e][1,4]diazepine-8-carboxamide] | 5.70 to 6.30 |

| Compound | pIC50 |
| --- | --- |
| CC(C)C[C@H]1NC(=O)c2ccc(C(=O)NO)cc2NC1=O [Compound 97f, (R)-N-Hydroxy-3-isobutyl-2,5-dioxo-2,3,4,5-tetrahydro-1H-benzo[e][1,4]diazepine-8-carboxamide] | 5.00 to 5.70 |
| O=C(NO)c1ccc2c(c1)NC(=O)[C@@H](CC1CCCCC1)NC2=O [Compound 97g, (R)-3-(Cyclohexylmethyl)-N-hydroxy-2,5-dioxo-2,3,4,5-tetrahydro-1H-benzo[e][1,4]diazepine-8-carboxamide] | 5.00 to 5.70 |
| O=C(NO)c1ccc2c(c1)NC(=O)[C@H](CC1CCCCC1)NC2=O [Compound 97h, (S)-3-(Cycbohexylmethyl)-N-hydroxy-2,5-dioxo-2,3,4,5-tetrahydro-1H-benzo[e][1,4]diazepine-8-carboxamide] | 5.70 to 6.30 |
| O=C(NO)c1ccc2c(c1)NC(=O)[C@H](c1ccccc1)NC2=O [Compound 97i, (S)-N-Hydroxy-2,5-dioxo-3-phenyl-2,3,4,5-tetrahydro-1H-benzo[e][1,4]diazepine-8-carboxamide] | 5.00 to 5.70 |
| O=C(NO)c1ccc2c(c1)NC(=O)[C@@H](c1ccccc1)NC2=O [Compound 97j, (R)-N-Hydroxy-2,5-dioxo-3-phenyl-2,3,4,5-tetrahydro-1H-benzo[e][1,4]diazepine-8-carboxamide] | 5.00 to 5.70 |
| O=C1CNC(=O)c2ccc(C(=O)NO)cc2N1 [Compound 97k, N-Hydroxy-2,5-dioxo-2,3,4,5-tetrahydro-1H-benzo[e][1,4]diazepine-8-carboxamide] | 5.00 to 5.70 |
| O=C(NO)c1ccc(O[C@H]2C[C@@H](C(=O)Nc3cccc4cccnc34)N(C(=O)OCc3ccccc3)C2)cc1 [Compound 109a, (2S,4S)-Benzyl 4-(4-(hydroxycarbamoyl)phenoxy)-2-(quinolin-8-ylcarbamoyl)pyrrolidine-1-carboxylate] | 6.30 to 7.30 |
| O=C(NO)c1ccc(O[C@@H]2C[C@@H](C(=O)Nc3cccc4cccnc34)N(C(=O)OCc3ccccc3)C2)cc1 [Compound 109b, (2S,4R)- Benzyl 4-(4-(hydroxycarbamoyl)phenoxy)-2-(quinolin-8-ylcarbamoyl) pyrrolidine-1-carboxylate] | 6.30 to 7.30 |
| O=C(NO)c1ccc(O[C@H]2C[C@H](C(=O)Nc3cccc4cccnc34)N(C(=O)OCc3ccccc3)C2)cc1 [Compound 109c, (2R,4S)- Benzyl 4-(4-(hydroxycarbamoyl)phenoxy)-2-(quinolin-8-ylcarbainoyl) pyrrolidine-1-carboxylate] | 6.30 to 7.30 |
| O=C(CCO[C@@H]1C[C@@H](C(=O)Nc2cccc3cccnc23)N(C(=O)OCc2ccccc2)C1)NO [Compound 112a, (2S,4R)-benzyl 4-(3-(hydroxyamino)-3-oxopropoxy)-2-(quinolin-8-ylcarbamoyl)pyrrolidine-1-carboxylate] | 5.70 to 6.30 |
| O=C(CO[C@@H]1CC(C(=O)Nc2cccc3cccnc23)N(C(=O)OCc2ccccc2)C1)NO (stereo partly drawn) [Compound 112b, (2S,4R)-benzyl 4-(2-(hydroxyamino)-2-oxoethoxy)-2-(quinolin-8-ylcarbainoyl) pyrrolidine-1-carboxylate] | 5.70 to 6.30 |
| O=C(CCO[C@@H]1C[C@H](C(=O)Nc2cccc3cccnc23)N(C(=O)OCc2ccccc2)C1)NO [Compound 112c, (2R,4R)-benzyl 4-(3-(hydroxyamino)-3-oxopropoxy)-2-(quinolin-8-ylcarbamoyl) pyrrolidine-1-carboxylate] | 5.70 to 6.30 |
| O=C(NO)c1ccc(NC(=O)N2c3ccccc3NC(=O)[C@H]2Cc2ccc(F)c(F)c2)cc1 [Compound 116, (R)-2-(3,4-Difluorobenzyl)-N-(4-(hydroxycarbamoyl)phenyl)-3-oxo-3,4-dihydroquinoxaline-1(2H)-carboxamide] | > 7.30 |
| O=C(NO)c1cccc(NC(=O)N2c3ccccc3NC(=O)[C@H]2Cc2ccc(F)c(F)c2)c1 [Compound 118, (R)-2-(3,4-difluorobenzyl)-N-(3-(hydroxycarbamoyl)phenyl)-3-oxo-3,4-dihydroquinoxaline-1(2H)-carboxamide] | 6.30 to 7.30 |
| O=C(NO)c1cnc(N[C@H]2C[C@@H](C(=O)Nc3cccc4cccnc34)N(C(=O)OCc3ccccc3)C2)nc1 [Compound 122, (2S,4S)-Benzyl 4-(5-(hydroxycarbamoyl)pyrimidin-2-ylamino)-2-(quinolin-8-ylcarbamoyl)pyrrolidine-1-carboxylate] | > 7.30 |
| O=C(NO)c1ccc(CN2C(=O)CNC(=O)[C@H]2Cc2c[nH]c3ccccc23)cc1 [Compound 136a, (R)-4-((2-((1H-Indol-3-yl)methyl)-3,6-dioxopiperazin-1-yl)methyl)-N-hydroxybenzamide] | > 7.30 |
| O=C(NO)c1ccc(CN2C(=O)CNC(=O)[C@H]2Cc2ccccc2)cc1 [Compound 136b, (R)-4-((2-Benzyl-3,6-dioxopiperazin-1-yl)methyl)-N-hydroxybenzamide] | > 7.30 |
| O=C(NO)c1ccc(CN2C(=O)CNC(=O)[C@H]2Cc2cccs2)cc1 [Compound 136c, (R)-4-((3,6-Dioxo-2-(thien-2-ylmethyl)piperazin-1-yl)methyl)-N-hydroxybenzamide] | 6.30 to 7.30 |
